This is an account of results in ChEMBL document CHEMBL1221384, “Synthesis and antimicrobial activity of novel fluorine containing 4-(substituted-2-hydroxybenzoyl)-1H-pyrazoles and pyrazolyl benzo[d]oxazoles” (2010).

Values after ≈ are worked out from the molar mass of the structure shown.

Common to all, as to type: functional
One test concerns Escherichia coli. Kind of test: Antimicrobial activity against Escherichia coli MTCC 443 by broth microdilution technique. (Dilution methods test growth across graded concentrations, often in twofold steps.)
Another test concerns Pseudomonas aeruginosa. Nature of the test: Antimicrobial activity against Pseudomonas aeruginosa MTCC 1688 by broth microdilution technique.
A further test has as its system Staphylococcus aureus. Nature of the test: Antimicrobial activity against Staphylococcus aureus MTCC 96 by broth microdilution technique.
The subject of the next test is Bacillus subtilis. Nature of the test: Antimicrobial activity against Bacillus subtilis MTCC 441 by broth microdilution technique.
The next test concerns Candida albicans. Nature of the test: Antimicrobial activity against Candida albicans MTCC 227 by broth serial dilution technique.

`Fc1ccc2oc(-c3cnn(-c4ccc(F)c(F)c4)c3)nc2c1`: the MIC50 (as a rule, the lowest concentration that inhibits either 50% of growth or 50% of the strains tested, depending on the study) in the test with Escherichia coli is 250 µg/mL (≈ 793 µM); in the test with Pseudomonas aeruginosa it was 50 µg/mL (≈ 159 µM); against Staphylococcus aureus, 500 µg/mL (≈ 1590 µM); in the test with Bacillus subtilis it was 200 µg/mL (≈ 634 µM); with Candida albicans it was 250 µg/mL (≈ 793 µM).
For `Cc1ccc2oc(-c3cnn(-c4ccc(F)c(F)c4)c3)nc2c1`, the MIC50 is 500 µg/mL (≈ 1610 µM) against Escherichia coli; 62.5 µg/mL (≈ 201 µM) in the test on Pseudomonas aeruginosa; 50 µg/mL (≈ 161 µM) in the test on Staphylococcus aureus; 200 µg/mL (≈ 642 µM) with Bacillus subtilis; 500 µg/mL (≈ 1610 µM) in the test on Candida albicans.
In the case of `O=C(c1cnn(-c2ccc(F)c(F)c2)c1)c1cc(Br)ccc1O`, the MIC50 was 500 µg/mL (≈ 1320 µM) in the test on Escherichia coli; 500 µg/mL (≈ 1320 µM) against Pseudomonas aeruginosa; 125 µg/mL (≈ 330 µM) in the test on Staphylococcus aureus; 100 µg/mL (≈ 264 µM) against Bacillus subtilis; over 1000 µg/mL against Candida albicans.
On to `Cc1cc(C)c(O)c(C(=O)c2cnn(-c3ccc(F)c(F)c3)c2)c1`, for which the MIC50 with Escherichia coli was 500 µg/mL (≈ 1520 µM); with Pseudomonas aeruginosa it was 250 µg/mL (≈ 761 µM); in the test on Staphylococcus aureus it was 500 µg/mL (≈ 1520 µM); against Bacillus subtilis, 500 µg/mL (≈ 1520 µM); against Candida albicans, 1000 µg/mL (≈ 3050 µM).
On to `Cc1ccc(C(=O)c2cnn(-c3ccc(F)c(F)c3)c2)c(O)c1`, for which the MIC50 amounted to 125 µg/mL (≈ 398 µM) in the test with Escherichia coli; 62.5 µg/mL (≈ 199 µM) against Pseudomonas aeruginosa; 200 µg/mL (≈ 636 µM) in the test with Staphylococcus aureus; 100 µg/mL (≈ 318 µM) against Bacillus subtilis; 500 µg/mL (≈ 1590 µM) in the test on Candida albicans.
Consider GENTAMICIN, for which the MIC50 is 0.05 µg/mL in the test on Escherichia coli, 1 µg/mL against Pseudomonas aeruginosa, 0.25 µg/mL with Staphylococcus aureus and 1 µg/mL against Bacillus subtilis.
Turning to `O=C(O)c1cn(C2CC2)c2cc(N3CCNCC3)c(F)cc2c1=O` [CIPROFLOXACIN], the MIC50 in the test with Escherichia coli worked out at 25 µg/mL (≈ 75.4 µM); against Pseudomonas aeruginosa, 25 µg/mL (≈ 75.4 µM); in the test with Staphylococcus aureus it was 50 µg/mL (≈ 151 µM); in the test on Bacillus subtilis, 50 µg/mL (≈ 151 µM).
Consider `O=C(N[C@H](CO)[C@H](O)c1ccc([N+](=O)[O-])cc1)C(Cl)Cl` [CHLORAMPHENICOL], for which the MIC50 in the test with Escherichia coli, with Pseudomonas aeruginosa, in the test with Staphylococcus aureus and against Bacillus subtilis was 50 µg/mL (≈ 155 µM) each time.
Take `Cc1ccc(/C(=N\O)c2cnn(-c3ccc(F)c(F)c3)c2)c(O)c1`: the MIC50 in the test on Escherichia coli turned out to be 25 µg/mL (≈ 75.9 µM); in the test with Pseudomonas aeruginosa, 50 µg/mL (≈ 152 µM); against Staphylococcus aureus, 250 µg/mL (≈ 759 µM); with Bacillus subtilis, 500 µg/mL (≈ 1520 µM); against Candida albicans, 500 µg/mL (≈ 1520 µM).
In the case of `Fc1ccc(-n2cc(-c3nc4cc(Cl)ccc4o3)cn2)cc1F`, the MIC50 against Escherichia coli came out at 100 µg/mL (≈ 301 µM); against Pseudomonas aeruginosa, 125 µg/mL (≈ 377 µM); with Staphylococcus aureus, 125 µg/mL (≈ 377 µM); against Bacillus subtilis, 200 µg/mL (≈ 603 µM); in the test with Candida albicans it was 500 µg/mL (≈ 1510 µM).
With `O=C(c1cnn(-c2ccc(F)c(F)c2)c1)c1ccccc1O`, the MIC50 against Escherichia coli was 250 µg/mL (≈ 833 µM); in the test on Pseudomonas aeruginosa it was 555 µg/mL (≈ 1850 µM); against Staphylococcus aureus it was 500 µg/mL (≈ 1670 µM); in the test with Bacillus subtilis, 12.5 µg/mL (≈ 41.6 µM); against Candida albicans it was 100 µg/mL (≈ 333 µM).
Compound NYSTATIN had an MIC50 against Candida albicans of 100 µg/mL.
Turning to `Cc1ccc2nc(-c3cnn(-c4ccc(F)c(F)c4)c3)oc2c1`, the MIC50 against Escherichia coli stood at 200 µg/mL (≈ 642 µM); against Pseudomonas aeruginosa it was 500 µg/mL (≈ 1610 µM); in the test on Staphylococcus aureus, 200 µg/mL (≈ 642 µM); with Bacillus subtilis, 25 µg/mL (≈ 80.3 µM); against Candida albicans it was 500 µg/mL (≈ 1610 µM).
`O/N=C(/c1cnn(-c2ccc(F)c(F)c2)c1)c1cc(F)ccc1O`: the MIC50 was determined as 500 µg/mL (≈ 1500 µM) against Escherichia coli; 500 µg/mL (≈ 1500 µM) against Pseudomonas aeruginosa; 500 µg/mL (≈ 1500 µM) against Staphylococcus aureus; 250 µg/mL (≈ 750 µM) with Bacillus subtilis; 1000 µg/mL (≈ 3000 µM) with Candida albicans.
Regarding `O/N=C(/c1cnn(-c2ccc(F)c(F)c2)c1)c1cc(Br)ccc1O`, the MIC50 against Escherichia coli stood at 200 µg/mL (≈ 507 µM); against Pseudomonas aeruginosa it was 100 µg/mL (≈ 254 µM); with Staphylococcus aureus, 500 µg/mL (≈ 1270 µM); against Bacillus subtilis, 1000 µg/mL (≈ 2540 µM); in the test on Candida albicans, 500 µg/mL (≈ 1270 µM).
For `Fc1ccc(-n2cc(-c3nc4ccccc4o3)cn2)cc1F`, the MIC50 against Escherichia coli amounted to 125 µg/mL (≈ 421 µM); against Pseudomonas aeruginosa it was 100 µg/mL (≈ 336 µM); against Staphylococcus aureus it was 125 µg/mL (≈ 421 µM); with Bacillus subtilis, 200 µg/mL (≈ 673 µM); with Candida albicans it was 1000 µg/mL (≈ 3360 µM).
Take `Cc1ccc(O)c(C(=O)c2cnn(-c3ccc(F)c(F)c3)c2)c1`: the MIC50 with Escherichia coli turned out to be 500 µg/mL (≈ 1590 µM); with Pseudomonas aeruginosa, 250 µg/mL (≈ 795 µM); in the test on Staphylococcus aureus it was 500 µg/mL (≈ 1590 µM); against Bacillus subtilis, 500 µg/mL (≈ 1590 µM); in the test on Candida albicans, 1000 µg/mL (≈ 3180 µM).
Regarding `O/N=C(/c1cnn(-c2ccc(F)c(F)c2)c1)c1ccccc1O`, the MIC50 was 500 µg/mL (≈ 1590 µM) in the test with Escherichia coli; 500 µg/mL (≈ 1590 µM) against Pseudomonas aeruginosa; over 1000 µg/mL in the test with Staphylococcus aureus; over 1000 µg/mL against Bacillus subtilis; 1000 µg/mL (≈ 3170 µM) against Candida albicans.
`O=C(c1cnn(-c2ccc(F)c(F)c2)c1)c1cc(Cl)ccc1O`: the MIC50 was 250 µg/mL (≈ 747 µM) against Escherichia coli; 500 µg/mL (≈ 1490 µM) against Pseudomonas aeruginosa; 1000 µg/mL (≈ 2990 µM) in the test on Staphylococcus aureus; 500 µg/mL (≈ 1490 µM) in the test on Bacillus subtilis; 500 µg/mL (≈ 1490 µM) in the test on Candida albicans.
`CCn1cc(C(=O)O)c(=O)c2cc(F)c(N3CCNCC3)cc21` [NORFLOXACIN]: the MIC50 was 10 µg/mL (≈ 31.3 µM) in the test on Escherichia coli, 10 µg/mL (≈ 31.3 µM) against Pseudomonas aeruginosa, 10 µg/mL (≈ 31.3 µM) against Staphylococcus aureus and 100 µg/mL (≈ 313 µM) in the test with Bacillus subtilis.
In the case of `O=C(c1cnn(-c2ccc(F)c(F)c2)c1)c1cc(F)cc(Cl)c1O`, the MIC50 with Escherichia coli was 500 µg/mL (≈ 1420 µM); in the test on Pseudomonas aeruginosa it was 500 µg/mL (≈ 1420 µM); against Staphylococcus aureus, 1000 µg/mL (≈ 2840 µM); against Bacillus subtilis, 500 µg/mL (≈ 1420 µM); against Candida albicans, 250 µg/mL (≈ 709 µM).
Take `O=C(c1cnn(-c2ccc(F)c(F)c2)c1)c1cc(F)ccc1O`: the MIC50 is 62.5 µg/mL (≈ 196 µM) in the test with Escherichia coli; 50 µg/mL (≈ 157 µM) against Pseudomonas aeruginosa; 100 µg/mL (≈ 314 µM) against Staphylococcus aureus; 62.5 µg/mL (≈ 196 µM) in the test with Bacillus subtilis; 500 µg/mL (≈ 1570 µM) with Candida albicans.
Turning to `O/N=C(/c1cnn(-c2ccc(F)c(F)c2)c1)c1cc(Cl)ccc1O`, the MIC50 stood at 12.5 µg/mL (≈ 35.7 µM) against Escherichia coli; 125 µg/mL (≈ 357 µM) in the test with Pseudomonas aeruginosa; 100 µg/mL (≈ 286 µM) in the test on Staphylococcus aureus; 62.5 µg/mL (≈ 179 µM) against Bacillus subtilis; 1000 µg/mL (≈ 2860 µM) against Candida albicans.
Take `Fc1ccc(-n2cc(-c3nc4cc(Br)ccc4o3)cn2)cc1F`: the MIC50 was found to be 250 µg/mL (≈ 665 µM) in the test with Escherichia coli; 250 µg/mL (≈ 665 µM) with Pseudomonas aeruginosa; 250 µg/mL (≈ 665 µM) against Staphylococcus aureus; 250 µg/mL (≈ 665 µM) against Bacillus subtilis; 500 µg/mL (≈ 1330 µM) with Candida albicans.
In the test with Candida albicans, `COC1=CC(=O)C[C@@H](C)[C@]12Oc1c(Cl)c(OC)cc(OC)c1C2=O` [GRISEOFULVIN] came in with an MIC50 of 500 µg/mL (≈ 1420 µM).
Consider `CC1(C)S[C@@H]2[C@H](NC(=O)[C@H](N)c3ccccc3)C(=O)N2[C@H]1C(=O)O` [AMPICILLIN], for which the MIC50 is 100 µg/mL (≈ 286 µM) with Escherichia coli, 100 µg/mL (≈ 286 µM) in the test with Pseudomonas aeruginosa, 250 µg/mL (≈ 715 µM) with Staphylococcus aureus and 250 µg/mL (≈ 715 µM) against Bacillus subtilis.
